Results on 22 compounds are retold here after article PMC6264139, “Schiff Bases of Indoline-2,3-dione: Potential Novel Inhibitors of Mycobacterium Tuberculosis (Mtb) DNA Gyrase ^†” (Molecules, 2011).

In general, melting point refers to the temperature of the solid-liquid transition.

Consider `Cc1cccc(Nc2ccccc2C(=O)N/N=C2\C(=O)N(Cc3ccccc3)c3ccccc32)c1C` [Compound 23, (Z)-N'-(1-Benzyl-2-oxoindolin-3-ylidene)-2-(2,3-dimethylphenylamino)benzohydrazide], for which the melting point was 286 to 288 °C.
Compound `O=C1Nc2ccc([N+](=O)[O-])cc2/C1=N/NC(=O)c1ccncc1` [Compound 8, (Z)-N'-(5-Nitro-2-oxoindolin-3-ylidene)isonicotinohydrazide] showed a melting point of 350 to 353 °C.
The figure for `O=C1Nc2ccc(OC(F)(F)F)cc2/C1=N/NC(=O)c1ccccc1Nc1cccc(C(F)(F)F)c1` [Compound 25, (Z)-N'-(2-Oxo-5-(trifluoromethoxy)indolin-3-ylidene)-2-(3-(trifluoromethyl)phenylamino)-benzo-hydrazide] is 226 °C; for `O=C1Nc2ccc(F)cc2/C1=N/NC(=O)c1cc2cc([N+](=O)[O-])ccc2o1` [Compound 21, (Z)-N'-(5-Fluoro-2-oxoindolin-3-ylidene)-5-nitrobenzofuran-2-carbhydrazide] it is 357 to 359 °C.
The figure for `O=C(N/N=C1\C(=O)N(c2ccccc2)c2ccccc21)c1ccncc1` [Compound 9, (Z)-N'-(2-Oxo-1-phenylindolin-3-ylidene)isonicotinohydrazide] is 201 to 205 °C; for `O=C(N/N=C1\C(=O)N(c2ccccc2)c2ccccc21)c1cc2ccccc2o1` [Compound 20, (Z)-N'-(2-Oxo-1-phenylindolin-3-ylidene)benzofuran-2-carbohydrazide] it is 235 to 238 °C; for `O=C(N/N=C1\C(=O)N(Cc2ccccc2)c2ccc(Cl)cc21)c1ccncc1` [Compound 11, (Z)-N'-(1-Benzyl-5-chloro-2-oxoindolin-3-ylidene)isonicotinohydrazide] it is 167 to 171 °C.
As for `O=C1/C(=N\NC(=O)C23CC4CC(CC(C4)C2)C3)c2ccccc2N1c1ccccc1` [Compound 22, (Z)-N'-(2-oxo-1-phenylindolin-3-ylidene)adamantane-1-carbohydrazide], the figure is 201 to 203 °C.
Compound `Cc1ccc2c(c1)/C(=N/NC(=O)c1ccncc1)C(=O)N2` [Compound 6, (Z)-N'-(5-Methyl-2-oxoindolin-3-ylidene)isonicotinohydrazide] had a melting point of 319 to 322 °C.
For `O=C1Nc2ccc(Cl)cc2/C1=N/NC(=O)c1cc2ccccc2o1` [Compound 17, (Z)-N'-(5-Chloro-2-oxoindolin-3-ylidene)benzofuran-2-carbohydrazide], the melting point was 335 to 338 °C.
The figure for `O=C1Nc2ccc(F)cc2/C1=N/NC(=O)c1ccncc1` [Compound 5, (Z)-N'-(5-Fluoro-2-oxoindolin-3-ylidene)isonicotinohydrazide] is 346 to 348 °C; for `O=C1Nc2ccc(OC(F)(F)F)cc2/C1=N/NC(=O)c1ccncc1` [Compound 7, (Z)-N'-(2-Oxo-5-(trifluoromethoxy)indolin-3-ylidene)isonicotinohydrazide] it is 262 to 265 °C; for `O=C1Nc2ccccc2/C1=N/NC(=O)c1cccnc1` [Compound 14, (Z)-N'-(2-Oxoindolin-3-ylidene)nicotinohydrazide] it is 254 to 256 °C.
Compound `O=C1Nc2ccccc2/C1=N/NC(=O)c1ccc([N+](=O)[O-])o1` [Compound 16, (Z)-5-Nitro-N'-(2-Oxoindolin-3-ylidene)furan-2-carbohydrazide] registered a melting point of 309 to 311 °C.
The compound `O=C(N/N=C1\C(=O)N(Cc2ccccc2)c2ccc(F)cc21)c1ccncc1` [Compound 12, (Z)-N'-(1-Benzyl-5-fluoro-2-oxoindolin-3-ylidene)isonicotinohydrazide] yielded a melting point of 188 to 192 °C.
As for `Cc1ccc2c(c1)/C(=N/NC(=O)c1ccncc1)C(=O)N2Cc1ccccc1` [Compound 13, (Z)-N'-(1-Benzyl-5-methyl-2-oxoindolin-3-ylidene)isonicotinohydrazide], the figure is 159 to 162 °C.
The figure for `O=C1Nc2ccc(Cl)cc2/C1=N/NC(=O)c1ccncc1` [Compound 4, (Z)-N'-(5-Chloro-2-oxoindolin-3-ylidene)isonicotinohydrazide] is 345 to 348 °C.
As for `Cc1ccc2c(c1)/C(=N/NC(=O)c1ccccc1Nc1c(Cl)ccc(C)c1Cl)C(=O)N2` [Compound 24, (Z)-2-(2,6-Dichloro-3-methylphenylamino)-N'-(5-methyl-2-oxoindolin-3-ylidene)-benzohydrazide], the figure is 283 to 287 °C.
On to `O=C1Nc2ccc([N+](=O)[O-])cc2/C1=N/NC(=O)c1cc2ccccc2o1` [Compound 19, (Z)-N'-(5-Nitro-2-oxoindolin-3-ylidene)benzofuran-2-carbohydrazide], for which the melting point is 367 to 369 °C.
As for `Cc1ccc2c(c1)/C(=N/NC(=O)c1cc3ccccc3o1)C(=O)N2` [Compound 18, (Z)-N'-(5-Methyl-2-oxoindolin-3-ylidene)benzofuran-2-carbohydrazide], the figure is 331 to 336 °C; as for `O=C1Nc2ccc(F)cc2/C1=N/NC(=O)c1ccco1` [Compound 15, (Z)-N'-(5-Fluoro-2-oxoindolin-3-ylidene)furan-2-carbhydrazide], 310 to 312 °C; as for `CCn1cc(C(=O)N/N=C2\C(=O)Nc3ccc(F)cc32)c(=O)c2ccc(C)nc21` [Compound 26, (Z)-1-Ethyl-N'-(5-fluoro-2-oxoindolin-3-ylidene)-7-methyl-4-oxo-1,4-dihydro-1,8-naphthyridine-3-carbohydrazide], above 360 °C.
